In PubChem BioAssay (NCI):
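How tested: cells in 96-well plates exposed to compound for 48 hours at five concentrations. At the TGI there is no net growth.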

Columns and labels:
Experiment in all cases: DTP human tumour cell line panel, 48 h
[1] = tested on: K-562 leukemia
[2] = tested on: PC-3 prostate
[3] = tested on: HOP-62 NSCLC
[4] = tested on: SK-MEL-28 melanoma
[5] = tested on: HS 578T breast
[6] = tested on: EKVX NSCLC
[7] = tested on: SNB-75 CNS
[8] = tested on: KM12 colon
[9] = tested on: T-47D breast
[10] = tested on: MDA-MB-435
[11] = tested on: A549 NSCLC
[12] = tested on: HOP-92 NSCLC
[13] = tested on: U251 CNS
[14] = tested on: SW-620 colon
[15] = tested on: 786-0 renal
[16] = tested on: HCC-2998 colon
[17] = tested on: SF-295 CNS
[18] = tested on: SF-268 CNS
[19] = tested on: UACC-62 melanoma
[20] = tested on: ACHN renal
[21] = tested on: MDA-MB-231 breast
[22] = tested on: HCT-116 colon
[23] = tested on: RPMI-8226 leukemia
[24] = tested on: SN12C renal
[25] = tested on: LOX IMVI melanoma
[26] = tested on: HCT-15 colon
[27] = tested on: DU-145 prostate
[28] = tested on: CCRF-CEM leukemia
[29] = tested on: SK-MEL-2 melanoma
[30] = tested on: UACC-257 melanoma
[31] = tested on: SNB-19 CNS
[32] = tested on: SK-OV-3 ovarian
[33] = tested on: A498 renal
[34] = tested on: NCI-H226 lung
[35] = tested on: OVCAR-4 ovarian
[36] = tested on: TK-10 renal
[37] = tested on: OVCAR-3 ovarian
[38] = tested on: MDA-N
[39] = tested on: SF-539 CNS
[40] = tested on: NCI/ADR-RES ovarian
[41] = tested on: UO-31 renal
[42] = tested on: M14 melanoma
[43] = tested on: MOLT-4 leukemia
[44] = tested on: RXF 393 renal
[45] = tested on: SK-MEL-5 melanoma
[46] = tested on: OVCAR-5 ovarian
[47] = tested on: CAKI-1 renal
[48] = tested on: MCF7 breast
[49] = tested on: HL-60(TB) leukemia
[50] = tested on: IGROV1 ovarian
[51] = tested on: NCI-H23 lung
[52] = tested on: HT29 colon
[53] = tested on: MALME-3M melanoma
[54] = tested on: OVCAR-8 ovarian
[55] = tested on: BT-549 breast
[56] = tested on: NCI-H460 lung
[57] = tested on: COLO 205 colon

`CC1(C)[C@@H](Cn2cnc3c(=O)[nH]c(N)nc32)CC[C@@]1(C)CO` was tested, and the TGI [1] was greater than 100 µM, the TGI [2] was greater than 100 µM and the TGI [3] was greater than 100 µM. It also gave a TGI [4] greater than 100 µM, a TGI [5] greater than 100 µM and a TGI [6] greater than 100 µM. The TGI [7] was greater than 100 µM, the TGI [8] was greater than 100 µM and the TGI [9] was greater than 100 µM. For the same compound, the TGI [10] was greater than 100 µM, the TGI [11] was greater than 100 µM and the TGI [12] was greater than 100 µM. It also gave a TGI [13] greater than 100 µM, a TGI [14] greater than 100 µM and a TGI [15] greater than 100 µM. For the same compound, the TGI [16] was greater than 100 µM, the TGI [17] was greater than 100 µM and the TGI [18] was greater than 100 µM. It also gave a TGI [19] greater than 100 µM, a TGI [20] greater than 100 µM and a TGI [21] greater than 100 µM. It also gave a TGI [22] greater than 100 µM, a TGI [23] greater than 100 µM and a TGI [24] greater than 100 µM. It also gave a TGI [25] greater than 100 µM, a TGI [26] greater than 100 µM and a TGI [27] greater than 100 µM. It also gave a TGI [28] greater than 100 µM, a TGI [29] greater than 100 µM and a TGI [30] greater than 100 µM. For the same compound, the TGI [31] was greater than 100 µM, the TGI [32] was greater than 100 µM and the TGI [33] was greater than 100 µM. For the same compound, the TGI [34] was greater than 100 µM, the TGI [35] was greater than 100 µM and the TGI [36] was greater than 100 µM. For the same compound, the TGI [37] was greater than 100 µM, the TGI [38] was greater than 100 µM and the TGI [39] was greater than 100 µM. For the same compound, the TGI [40] was greater than 100 µM, the TGI [41] was greater than 100 µM and the TGI [42] was greater than 100 µM. For the same compound, the TGI [43] was greater than 100 µM, the TGI [44] was greater than 100 µM and the TGI [45] was greater than 100 µM. The TGI [46] was greater than 100 µM, the TGI [47] was greater than 100 µM and the TGI [48] was greater than 100 µM.

With `CC1(C)CN(c2ccccc2)C(=O)C1OC(=O)[C@@]1(C)C[C@@H]2C=C[C@H]1C2` (some centres undefined) the TGI [49] was 46.3 µM, the TGI [1] was greater than 100 µM and the TGI [2] was 83.2 µM. It also gave a TGI [50] of 41.3 µM, a TGI [3] of 40.8 µM and a TGI [4] of 35.1 µM. It also gave a TGI [5] of 54.7 µM, a TGI [6] of 59.9 µM and a TGI [7] of 75 µM. It also gave a TGI [8] of 45.2 µM, a TGI [9] of 73.2 µM and a TGI [10] of 42 µM. For the same compound, the TGI [11] was 83.7 µM, the TGI [51] was 56 µM and the TGI [12] was 60.6 µM. It also gave a TGI [13] of 43.9 µM, a TGI [14] greater than 100 µM and a TGI [15] of 39.2 µM. It also gave a TGI [17] of 46.7 µM, a TGI [18] of 82.5 µM and a TGI [19] of 41.4 µM. It also gave a TGI [20] greater than 100 µM, a TGI [21] of 79.3 µM and a TGI [22] of 35.8 µM. For the same compound, the TGI [52] was 28.8 µM, the TGI [23] was 30 µM and the TGI [24] was 49.8 µM. The TGI [25] was 40.3 µM, the TGI [53] was 28.3 µM and the TGI [26] was 55.1 µM. For the same compound, the TGI [27] was greater than 100 µM, the TGI [28] was 81.4 µM and the TGI [29] was 35.4 µM. The TGI [30] was 42.5 µM, the TGI [31] was 65.5 µM and the TGI [32] was 94.7 µM. The TGI [33] was 61.3 µM, the TGI [34] was 53.6 µM and the TGI [35] was 39.9 µM. For the same compound, the TGI [36] was 64.7 µM, the TGI [54] was greater than 100 µM and the TGI [37] was greater than 100 µM. It also gave a TGI [38] of 41.6 µM, a TGI [39] of 52.9 µM and a TGI [55] of 82.5 µM. For the same compound, the TGI [56] was 55 µM, the TGI [40] was 52.2 µM and the TGI [41] was 30.8 µM. It also gave a TGI [42] of 40.1 µM, a TGI [43] greater than 100 µM and a TGI [44] of 35.4 µM. It also gave a TGI [45] of 29.4 µM, a TGI [46] of 56.6 µM and a TGI [57] of 34 µM. For the same compound, the TGI [47] was 61.5 µM and the TGI [48] was 58 µM.
